We go through five compounds from BindingDB's records for doi:10.1021/bi00246a005 (Texas A&M University, 1991).

The term pKi denotes the Ki on a negative log10 scale, so that one unit is a factor of ten. Higher therefore signals a small Ki.

pKi: −log10 of the molar value.

The target in the assay is T1, Carbamoyl-phosphate synthase small chain (Escherichia coli (strain K12), UniProt P0A6F1).
T1 sequence (P0A6F1 whole entry): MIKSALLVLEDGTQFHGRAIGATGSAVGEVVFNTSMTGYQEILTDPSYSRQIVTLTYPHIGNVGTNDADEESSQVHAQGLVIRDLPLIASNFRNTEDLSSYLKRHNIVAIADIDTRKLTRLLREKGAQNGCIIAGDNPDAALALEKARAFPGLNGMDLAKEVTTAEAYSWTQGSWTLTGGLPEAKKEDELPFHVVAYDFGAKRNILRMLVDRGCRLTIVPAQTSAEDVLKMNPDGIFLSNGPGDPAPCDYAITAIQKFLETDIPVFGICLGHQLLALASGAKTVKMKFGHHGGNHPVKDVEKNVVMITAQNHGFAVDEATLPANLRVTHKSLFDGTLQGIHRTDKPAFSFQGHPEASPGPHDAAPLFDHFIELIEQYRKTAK
The experiment in a line: Enzyme Assay. As to conditions: pH 7.5. The procedure: The rate of carbamoyl phosphate synthesis was determined by use of a coupled enzyme assay with ornithine transcarbamoylase.

In the case of `COC(=O)CCC(N)C(=O)O` (stereo not given) [Glutamine Analogue, 5], the pKi is 1.60.
Consider `NC(CCC(=O)NO)C(=O)O` (stereo not given) [Glutamine Analogue, 2], for which the pKi was 5.05.
With `NNC(=O)CCC(N)C(=O)O` (stereo not given) [Glutamine Analogue, 3] the figure was 3.47; with `NC(CCC(=O)O)C(=O)O` (stereo not given) [Glutamine Analogue, 4], 1.55; with `NC(=O)CCC(N)C(=O)O` (stereo not given) [Glutamine Analogue, 1], 4.27.
